Test results as given in patent US10287301B2 (Achillion Pharmaceuticals, Inc., priority 2015, dated 2019).

Target: Human Factor D (Homo sapiens (Human), UniProt P00746)
Assay: Human Factor D Assay
Assay type: biochemical
Conditions: Human Factor D assay of Example 8; Table 2; read-out: IC50
In short: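 Factor D (from human serum) 80 nM final + cpd, 5 min RT, 50 mM Tris/1M NaCl pH 7.5; add Z-L-Lys-SBzl 100 μM and DTNB 100 μM final. IC50 by nonlinear fit of rates vs [cpd].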

Human Factor D, sequence (P00746 26-253): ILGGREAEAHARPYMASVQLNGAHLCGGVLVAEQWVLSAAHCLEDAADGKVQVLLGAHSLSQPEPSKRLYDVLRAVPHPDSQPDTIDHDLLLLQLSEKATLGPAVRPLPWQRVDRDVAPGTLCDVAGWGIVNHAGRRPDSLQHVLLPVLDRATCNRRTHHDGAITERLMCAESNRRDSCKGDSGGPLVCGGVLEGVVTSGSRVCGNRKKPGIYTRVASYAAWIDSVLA

Row | SMILES | IC50
1 | CC(=O)c1cn(CC(=O)N2C[C@H](F)C[C@H]2C(=O)Nc2cccc(-c3ccccc3Cl)c2F)c2ccc(-c3cnc(S(C)(=O)=O)nc3)cc12 [Compound 210, (2S,4R)-1-(2-(3-acetyl-5-(2-(methylsulfonyl)pyrimidin-5-yl)-1H-indol-1-yl)acetyl)-N-(2′-chloro-2-fluorobiphenyl-3-yl)-4-fluoropyrrolidine-2-carboxamide] | < 1000 nM
2 | CC(=O)c1cn(CC(=O)N2C[C@H](F)C[C@H]2C(=O)Nc2cccc(-c3ccccc3Cl)c2F)c2ccc(-c3cnc(C(=O)NC4CC4)nc3)cc12 [Compound 211, 5-(3-acetyl-1-(2-((2S,4R)-2-(2′-chloro-2-fluorobiphenyl-3-ylcarbamoyl)-4-fluoropyrrolidin-1-yl)-2-oxoethyl)-1H-indol-5-yl)-N-cyclopropylpyrimidine-2-carboxamide] | < 1000 nM
3 | COCCOCCNC(=O)c1ncc(-c2ccc3c(c2)c(C(C)=O)cn3CC(=O)N2C[C@H](F)C[C@H]2C(=O)Nc2cccc(-c3ccccc3Cl)c2F)cn1 [Compound 212, 5-(3-acetyl-1-(2-((2S,4R)-2-(2′-chloro-2-fluorobiphenyl-3-ylcarbamoyl)-4-fluoropyrrolidin-1-yl)-2-oxoethyl)-1H-indol-5-yl)-N-(2-(2-methoxyethoxy)ethyl)pyrimidine-2-carboxamide] | < 1000 nM
4 | CC(=O)c1cn(CC(=O)N2C[C@H](F)C[C@H]2C(=O)Nc2cccc(Br)n2)c2ccc(-c3cnc(C(N)=O)nc3)cc12 [Compound 213, 5-(3-acetyl-1-(2-((2S,4R)-2-(6-bromopyridin-2-ylcarbamoyl)-4-fluoropyrrolidin-1-yl)-2-oxoethyl)-1H-indol-5-yl)pyrimidine-2-carboxamide] | < 1000 nM
5 | CC(=O)c1nn(CC(=O)N2C[C@H](F)C[C@H]2C(=O)Nc2cccc(-c3ccc4[nH]cnc4c3Cl)c2F)c2ccc(-c3cnc(C)nc3)cc12 [Compound 214, (2S,4R)-1-(2-(3-acetyl-5-(2-methylpyrimidin-5-yl)-1H-indazol-1-yl)acetyl)-N-(3-(4-chloro-1H-benzo[d]imidazol-5-yl)-2-fluorophenyl)-4-fluoropyrrolidine-2-carboxamide] | < 1000 nM
6 | CC(=O)c1cn(CC(=O)N2C[C@H](F)C[C@H]2C(=O)Nc2cccc(-c3ccccc3Cl)c2F)c2ccc(-c3cnc(N)nc3)cc12 [Compound 215, (2S,4R)-1-(2-(3-acetyl-5-(2-aminopyrimidin-5-yl)-1H-indol-1-yl)acetyl)-N-(2′-chloro-2-fluorobiphenyl-3-yl)-4-fluoropyrrolidine-2-carboxamide] | < 1000 nM
7 | CC(=O)c1cn(CC(=O)N2C[C@H](F)C[C@H]2C(=O)Nc2cccc(Br)n2)c2ccc(-c3cnc(C4CC4)nc3)cc12 [Compound 216, (2S,4R)-1-(2-(3-acetyl-5-(2-cyclopropylpyrimidin-5-yl)-1H-indol-1-yl)acetyl)-N-(6-bromopyridin-2-yl)-4-fluoropyrrolidine-2-carboxamide] | < 1000 nM
8 | CC(=O)c1ncc(-c2ccc3c(c2)c(C(C)=O)cn3CC(=O)N2C[C@H](F)C[C@H]2C(=O)Nc2cccc(Br)n2)cn1 [Compound 218, (2S,4R)-1-(2-(3-acetyl-5-(2-acetylpyrimidin-5-yl)-1H-indol-1-yl)acetyl)-N-(6-bromopyridin-2-yl)-4-fluoropyrrolidine-2-carboxamide] | < 1000 nM
9 | CC(=O)c1cn(CC(=O)N2C[C@H](F)C[C@H]2C(=O)Nc2cccc(Br)n2)c2ccc(-c3cnc(N)nc3)cc12 [Compound 219, (2S,4R)-1-(2-(3-acetyl-5-(2-aminopyrimidin-5-yl)-1H-indol-1-yl)acetyl)-N-(6-bromopyridin-2-yl)-4-fluoropyrrolidine-2-carboxamide] | < 1000 nM
10 | CC(=O)c1nn(CC(=O)N2C[C@H](F)C[C@H]2C(=O)Nc2cccc(OC(F)(F)F)c2F)c2ccc(-c3cnc(C)nc3)cc12 [Compound 220, (2S,4R)-1-(2-(3-acetyl-5-(2-methylpyrimidin-5-yl)-1H-indazol-1-yl)acetyl)-4-fluoro-N-(2-fluoro-3-(trifluoromethoxy)phenyl)pyrrolidine-2-carboxamide] | < 1000 nM
11 | CC(=O)c1cn(CC(=O)N2N=CCC2C(=O)Nc2cccc(-c3ccccc3Cl)c2F)c2ccc(-c3cnc(C)nc3)cc12 (stereo not shown) [Compound 221, 1-(2-(3-acetyl-5-(2-methylpyrimidin-5-yl)-1H-indol-1-yl)acetyl)-N-(2′-chloro-2-fluorobiphenyl-3-yl)-4,5-dihydro-1H-pyrazole-5-carboxamide] | < 1000 nM
12 | CC(=O)c1cn(CC(=O)N2C[C@H](F)C[C@H]2C(=O)Nc2cccc(Br)n2)c2ccc(-c3cnc4nccn4c3)cc12 [Compound 222, (2S,4R)-1-(2-(3-acetyl-5-(imidazo[1,2-a]pyrimidin-6-yl)-1H-indol-1-yl)acetyl)-N-(6-bromopyridin-2-yl)-4-fluoropyrrolidine-2-carboxamide] | < 1000 nM
13 | CC(=O)c1cn(CC(=O)N2C[C@H](F)C[C@H]2C(=O)Nc2cccc(Cl)n2)c2ccc(-c3cnc4ccnn4c3)cc12 [Compound 223, (2S,4R)-1-(2-(3-acetyl-5-(pyrazolo[1,5-a]pyrimidin-6-yl)-1H-indol-1-yl)acetyl)-N-(6-chloropyridin-2-yl)-4-fluoropyrrolidine-2-carboxamide] | < 1000 nM
14 | CC(=O)c1cn(CC(=O)N2C[C@H](F)C[C@H]2C(=O)Nc2cccc(OC(F)(F)F)c2F)c2ccc(-c3cnc4ccnn4c3)cc12 [Compound 224, (2S,4R)-1-(2-(3-acetyl-5-(pyrazolo[1,5-a]pyrimidin-6-yl)-1H-indol-1-yl)acetyl)-4-fluoro-N-(2-fluoro-3-(trifluoromethoxy)phenyl)pyrrolidine-2-carboxamide] | < 1000 nM
15 | CC(=O)c1nn(CC(=O)N2C[C@H](F)C[C@H]2C(=O)Nc2cccc(Cl)n2)c2ccc(-c3cnc(C)nc3)cc12 [Compound 225, (2S,4R)-1-(2-(3-acetyl-5-(2-methylpyrimidin-5-yl)-1H-indazol-1-yl)acetyl)-N-(6-chloropyridin-2-yl)-4-fluoropyrrolidine-2-carboxamide] | < 1000 nM
16 | CC(=O)c1nn(CC(=O)N2C[C@H](F)C[C@H]2C(=O)NCc2cccc(Cl)c2F)c2ccc(-c3cnc(C)nc3)cc12 [Compound 226, (2S,4R)-1-(2-(3-acetyl-5-(2-methylpyrimidin-5-yl)-1H-indazol-1-yl)acetyl)-N-(3-chloro-2-fluorobenzyl)-4-fluoropyrrolidine-2-carboxamide] | < 1000 nM
17 | CC(=O)c1cn(CC(=O)N2NCCC2C(=O)Nc2cccc(-c3ccccc3Cl)c2F)c2ccc(-c3cnc(C)nc3)cc12 (stereo not shown) [Compound 227, 2-(2-(3-acetyl-5-(2-methylpyrimidin-5-yl)-1H-indol-1-yl)acetyl)-N-(2′-chloro-2-fluorobiphenyl-3-yl)pyrazolidine-3-carboxamide] | < 1000 nM
18 | CC(=O)c1nn(CC(=O)N2C[C@H](F)C[C@H]2C(=O)Nc2nccc(-c3sccc3Cl)n2)c2ccc(-c3cnc(C)nc3)cc12 [Compound 228, (2S,4R)-1-(2-(3-acetyl-5-(2-methylpyrimidin-5-yl)-1H-indazol-1-yl)acetyl)-N-(4-(3-chlorothiophen-2-yl)pyrimidin-2-yl)-4-fluoropyrrolidine-2-carboxamide] | < 1000 nM
19 | CC(=O)c1nn(CC(=O)N2C[C@H](F)C[C@H]2C(=O)Nc2cc(Cl)sc2C)c2ccc(-c3cnc(C)nc3)cc12 [Compound 229, (2S,4R)-1-(2-(3-acetyl-5-(2-methylpyrimidin-5-yl)-1H-indazol-1-yl)acetyl)-N-(5-chloro-2-methylthiophen-3-yl)-4-fluoropyrrolidine-2-carboxamide] | < 1000 nM
20 | CC(=O)c1nn(CC(=O)N2CCC[C@H]2C(=O)Nc2cccc(Br)n2)c2ccc(-c3cnc(C)nc3)cc12 [Compound 230, (S)-1-(2-(3-Acetyl-5-(2-methylpyrimidin-5-yl)-1H-indazol-1-yl)acetyl)-N-(6-bromopyridin-2-yl)pyrrolidine-2-carboxamide] | < 1000 nM
21 | CC(=O)c1nn(CC(=O)N2C[C@H](O)C[C@H]2C(=O)Nc2cccc(Br)n2)c2ccc(-c3cnc(C)nc3)cc12 [Compound 231, (2S,4R)-1-(2-(3-Acetyl-5-(2-methylpyrimidin-5-yl)-1H-indazol-1-yl)acetyl)-N-(6-bromopyridin-2-yl)-4-hydroxypyrrolidine-2-carboxamide] | < 1000 nM
22 | CC(=O)c1nn(CC(=O)N2C[C@H](F)C[C@H]2C(=O)NC2CCN(C(=O)c3cc(Cl)c[nH]3)CC2)c2ccc(-c3cnc(C)nc3)cc12 [Compound 232, (2S,4R)-1-(2-(3-acetyl-5-(2-methylpyrimidin-5-yl)-1H-indazol-1-yl)acetyl)-N-(1-(4-chloro-1H-pyrrole-2-carbonyl)piperidin-4-yl)-4-fluoropyrrolidine-2-carboxamide] | < 1000 nM
23 | CC(=O)c1nn(CC(=O)N2C[C@H](F)C[C@H]2C(=O)Nc2cccc(Br)n2)c2ccc(-c3cnc4ccnn4c3)cc12 [Compound 234, (2S,4R)-1-(2-(3-acetyl-5-(pyrazolo[1,5-a]pyrimidin-6-yl)-1H-indazol-1-yl)acetyl)-N-(6-bromopyridin-2-yl)-4-fluoropyrrolidine-2-carboxamide] | < 1000 nM
24 | CC(=O)c1nn(CC(=O)N2C[C@H](F)C[C@H]2C(=O)Nc2cccc(OC(F)(F)F)c2F)c2ccc(-c3cnc4ccnn4c3)cc12 [Compound 235, (2S,4R)-1-(2-(3-acetyl-5-(pyrazolo[1,5-a]pyrimidin-6-yl)-1H-indazol-1-yl)acetyl)-4-fluoro-N-(2-fluoro-3-(trifluoromethoxy)phenyl)pyrrolidine-2-carboxamide] | < 1000 nM
25 | CC(=O)c1nn(CC(=O)N2C[C@H](F)C[C@H]2C(=O)NCc2cccc(Cl)c2F)c2ccc(-c3cnc4ccnn4c3)cc12 [Compound 236, (2S,4R)-1-(2-(3-acetyl-5-(pyrazolo[1,5-a]pyrimidin-6-yl)-1H-indazol-1-yl)acetyl)-N-(3-chloro-2-fluorobenzyl)-4-fluoropyrrolidine-2-carboxamide] | < 1000 nM
